The text below walks through data of patent US4910318A, “Tetrahydrothiopyrano(3,2-b)-indole derivatives” (Shionogi & Co., Ltd., priority 1980, dated 1990).

In data set [1] the test system is bizarre behaviours of mice. The experiment in a line: Hallucinogenic activity (bizarre behaviours). The note with it: FIGS. 1 and 2. It is filed as in vivo. As for the experimental part: (8) Hallucinogenic activity
Each of the five mice in each group was confined n a box for 15 minutes to let it adapt to its surroundings. The mouse was kept on a black disc of 74 cm in diameter for 2 minutes from 5 and 15 minutes after administration of a test compound. The number of bizarre behaviours (walking backwards, pivoting and the like) was counted.

Data set [2] relates to spontaneous locomotion in mice. The experiment in a line: Spontaneous locomotor decreasing activity. The note with it: for ED50: Mus musculus, 50% decrease vs control, 95% confidence limits on a following line, read-out: ED50 (decreasing effect on spontaneous locomotion); for ED50 / % of decrease of spontaneous locomotion: mice, oral. Format: in vivo. The text has this: (7) Spontaneous locomotor decreasing activity
For each group 5 mice were used.

Data set [3] has as its system tetrabenazine ptosis. The experiment in a line: Antidepressant activity: Anti-tetrabenazine ptosis test. The note with it: for ED50: Mus musculus, mice, oral, 1 hour before TBZ 50 mg/kg s.c., ptosis 1 hour after TBZ. Format: in vivo, mice. The protocol:
(§1) (4) Antidepressant activity
(4)-a Anti-tetrabenazine ptosis test
Tetrabenazine (TBZ, 50 mg/kg s.c.) was administered to 5 mice for each group 1 hour after oral treatment with test compounds. […] (4=complete, 3=3/4, 2=1/2, 1=[…] closure of the eyelid, 0=normal).

The subject of data set [4] is Acetic acid writhing. The experiment in a line: Analgesic activity (Acetic acid writhing method). It is filed as in vivo, DS male mice. The note with it: Mus musculus; mice, oral, 30 min before acetic acid i.p.; writhing counted for 10 minutes; read-out: Analgesic activity ED50 (Test (2)). The protocol: (2) Analgesic activity (Acetic acid writhing method)
DS male mice (20-23 g, body weight) are treated with an intraperitoneal injection of 0.1 ml/10 g of 0.6% acetic acid 30 minutes after oral administration of a test compound. The number of writhing times for 10 minutes is counted and ED50 is calculated.
(In general: Writhing tests count abdominal constrictions after an irritant is injected.)

In data set [5] the test system is minimal electroshock seizures with reserpine. The data set can be described thus: Antidepressant activity: Anti-electroshock test with reserpine. Format: in vivo, mice. The note with it: for ED50: Mus musculus, po, mice, p.o., 0.5 hour before reserpine 2.5 mg/kg s.c., 12 mA, 0.2 sec, 4 hours after reserpine. The protocol:
as §1
(4)-b Anti-electroshock test with reserpine
Seizures were induced by shocking mice (10 per dose) via a pair of corneal electrodes with current intensity of 12 mA and a duration of 0.2 sec 4 hours after administration of reserpine.

The nature of data set [6]: Acute toxicity. The note with it: mouse, in vivo; mice, oral, mortality at the 72nd hour; read-out: Acute toxicity LD50 (Test (3)). As for the experimental part:
DS mice (20-23 g, male) are orally administered a suspension of test compound with gum arabic. The mortality at the 72nd hour is determined and the LD50 is calculated.

Data set [7] concerns oxotremorine hypothermia. The experiment in a line: Anti-cholinergic activity (Anti-oxotremorine hypothermia test). It is filed as in vivo, mice. The note with it: for ED50: Mus musculus, mice, oral, 30 minutes before oxotremorine 0.5 mg/kg s.c. The protocol:
(5) Anti-cholinergic activity (Anti-oxotremorine hypothermia test)
Before each experiment the rectal temperature of the mice was recorded with a probe thermometer at a constant depth. The mice were divided into groups of 8 in such a way that the mean rectal temperature was the same in each group. Test compounds were administered orally 30 minutes before s.c. administration of oxotremorine (0.5 mg/kg).

The test system of data set [8] is spontaneous locomotion in mice. The experiment in a line: Spontaneous locomotor increasing activity. It is filed as in vivo. The note with it: for ED50: Mus musculus, 50% increase vs control, 95% confidence limits on next line, read-out: ED50 (increasing effect on spontaneous locomotion); for ED50 / % of increase of spontaneous locomotion: oral. The protocol: (6) Spontaneous locomotor increasing activity
For each group 3 mice were used. Spontaneous locomotor activity was recorded for 15 minutes by a Varimex activity meter from 15 minutes after oral administration of a test compound.

Data set [9] deals with Carrageenin edema. The data set can be described thus: Anti-inflammatory activity (Carrageenin edema method). It is filed as in vivo, JCl-Wistar female rats. The note with it: Rattus norvegicus; rats, oral, 30 min before carrageenin; swelling measured 3 hours later; read-out: Anti-inflammatory activity ED30 (Test (1)). The protocol: (1) Anti-inflammatory activity (Carrageenin edema method)
A 0.9% saline solution (0.05 ml) containing 1.0% carrageenin is used as phlogistic agent. After 30 minutes JCl-Wistar female rats (180-200 g, body weight) are orally administered a test compound, the phlogistic agent is injected subcutaneously into the plantar of the feet of the rats. The volume of swelling is measured 3 hours later and the anti-edema activity is determined by calculating a ratio (%) of the edematous volume of medicated foot to that of non-medicated foot.

The mark [10] stands for this setting: compared with imipramine, Table 2.

Where a name gives a salt, the structure may show the parent alone. Some results are limits rather than exact numbers.

One may read the ED50 as the dose that gives a 50% effect, or the effect in half of the subjects. Broadly, the LD50 is the dose expected to kill half of the subjects tested. Take `CNCC1CCSc2[nH]c3ccccc3c21` (centres unmarked) [Ref., 4methylaminomethyl-2,3,4,9-tetrahydro-thiopyrano [3,2b]indole HCl salt, reference compound]: the hallucinogenic activity result in data set [1] was “does”. Further, the ED50 in [2] is 43 mg/kg; in data set [3], over 50 mg/kg; in data set [4], 4.2 mg/kg; in data set [5], 8.4 mg/kg; in data set [7], over 50 mg/kg. Also, in data set [2] (Table 4), the “effect on spontaneous locomotion (in words)” value was “decreases the activity”. Moreover, the “% of decrease of spontaneous locomotion” value is listed as 7.4% in data set [2] (25 mg/kg), 75.3% in data set [2] (50 mg/kg) and 97.2% in data set [2] (100 mg/kg). Besides, the LD50 at 72 h in data set [6] was 330 mg/kg.

For `CN(C)CCCN1c2ccccc2CCc2ccccc21` [Imipramine], the ED50 in data set [2] stood at 56 mg/kg; in data set [3], 6 mg/kg; in data set [5] it was 102 mg/kg; in [7], 4.5 mg/kg. Besides, the “% of decrease of spontaneous locomotion” value in [2] (25 mg/kg) came out at 19.1%; in data set [2] (50 mg/kg), 56.0%; in data set [2] (100 mg/kg), 62.9%.

As to `CNCC1CC[S+]([O-])c2c1n(C)c1ccccc21` (centres unmarked) [Compound 4, 4-Methylaminomethyl-5-methyl-2,3,4,5-tetrahydrothiopyrano[3,2-b]indole 1-oxide], the median effective dose (ED50) in [4] worked out at 49 mg/kg. Moreover, in data set [6], the LD50 at 72 h was over 1000 mg/kg.

`CNCC1CCSc2c1n(C)c1ccccc21` (centres unmarked) [Compound 1, 4-Methylaminomethyl-5-methyl-2,3,4,5-tetrahydrothiopyrano[3,2-b]indole]: the hallucinogenic activity entry in data set [1] is listed as “no hallucinogenic activity”. In addition, the ED50 was 24.4 mg/kg in data set [3]; 6.4 mg/kg in [4]; 5.6 mg/kg in data set [8] (mice); 4.3 mg/kg in data set [5]; over 50 mg/kg in [7]. For the same compound, the “anti-depressant activity (in words)” value in [3] (setting [10]) and in data set [5] (setting [10]) was “strong anti-depressant activity” each time. In data set [8] (continuous/successive administration), the “duration of spontaneous locomotion increasing activity” value is “more than 24 hours”. Further, the “effect on spontaneous locomotion (in words)” value in data set [8] (mice, Table 3) was “moderately increases spontaneous locomotion”. Besides, in data set [8] (mice, Table 3), the “strength of locomotion increasing activity compared with methamphetamine (in words)” value was “does not have so strong increasing activity as methamphethamine”. The “% of increase of spontaneous locomotion” value in [8] (mice, 5 mg/kg) was 54.3%; in data set [8] (mice, 10 mg/kg), 91.4%; in data set [8] (mice, 20 mg/kg) it was 123.0%. Besides, in [6], the LD50 at 72 h came out at 400 mg/kg. The ED30 in [9] was determined as 9.4 mg/kg. Also, the “anti-cholinergic activity (in words)” value in [7] (Table 2) is on record as “no anti-cholinergic acitivity”.

As to `Cc1c(N(C)C)c(=O)n(-c2ccccc2)n1C` [Aminopyrine, reference compound], the ED50 in data set [4] amounted to 58 mg/kg. Besides, the LD50 at 72 h in data set [6] was determined as 800 mg/kg. Further, the ED30 in [9] stood at 24 mg/kg.

For `CN[C@@H](C)Cc1ccccc1` [Methamphetamine, reference compound], the ED50 in [8] (mice) came out at 0.6 mg/kg. For the same compound, the “% of increase of spontaneous locomotion” value in data set [8] (mice, 0.5 mg/kg) came out at 45.4%; in data set [8] (mice, 1 mg/kg), 62.5%; in data set [8] (mice, 2 mg/kg) it was 137.8%.

Consider `C=CCn1c2c(c3ccccc31)SCCC2CNC` (centres unmarked) [Compound 5], for which the ED50 in data set [4] was determined as 11.3 mg/kg. Further, the LD50 at 72 h in [6] worked out at 700 mg/kg. Also, the ED30 in data set [9] was 17.5 mg/kg.

With `CCn1c2c(c3ccccc31)SCCC2CNC` (centres unmarked) [Compound 2, 4-methylaminomethyl-5-ethyl-2,3,4,5-tetrahydrothiopyrano[3,2-b]indole], in [4], the ED50 turned out to be 13.3 mg/kg. Further, the LD50 at 72 h in [6] was determined as 800 mg/kg. For the same compound, the ED30 in [9] amounted to 9.4 mg/kg.

Regarding `CN(C)CC1CCSc2c1n(C)c1ccccc21` (centres unmarked) [Compound 3, 4-Dimethylaminomethyl-5-methyl-2,3,4,5-tetrahydrothiopyrano[3,2-b]indole], the ED50 in data set [4] is 17.8 mg/kg. Further, in [6], the LD50 at 72 h was 400 mg/kg. The ED30 in data set [9] worked out at 28.3 mg/kg.

Take `CCN(CC)CCN(C)CC1CCSc2c1n(C)c1ccccc21` (centres unmarked) [Compound 6]: in data set [4], the ED50 worked out at 25.3 mg/kg. Besides, the median lethal dose (LD50) at 72 h in [6] stood at 700 mg/kg. Besides, the ED30 in data set [9] was 13.4 mg/kg.
